# Assay results: patent US4299822A, “N-Trifluoroacetyladriamycin-14-O-hemiglutarate and -hemiadipate and therapeutic compositions containing same” (Sidney Farber Cancer Institute, Inc., priority 1980, dated 1981)
# Like-named read-outs stand apart in the source and are kept apart here.
# How the values were obtained:
# solubility in water = settings: for solubility: phosphate buffer, pH 7.4, aqueous buffer; for solubility in water relative to N-trifluoroacetyladriamycin-14-valerate: physiological pH in the range pH 7.2-7.5
# CCRF-CEM cells = assay: growth inhibition of CCRF-CEM cell line in culture; assay type: cell-based; settings: Homo sapiens, read-out: ID50 (dose required to inhibit growth of the cultures by 50% relative to control)
# Source text: The in vitro assays measure the growth inhibiting activity of the materials against the CCRF-CEM cell line in culture. […] The in vivo evaluations were made by preparing a 0.2 to 0.7% by weight solution of the active agent in a formulation consisting of 10% by volume of each polyethoxylated castor oil and ethanol in saline and injecting the dosage intraperitoneally. The evaluations were made of the antitumor activity against the murine P388 and murine L1210 leukemias in BDF1 male mice according to standard National Cancer Institute protocols as set forth by Geran et al., Cancer Chemotherap. Rep., Part 3, Volume 3, pages 1 et seq.
# [1] = cytotoxicity or anti-tumor activity (general statement); settings: for cytotoxicity or anti-tumor activity relative to adriamycin: vs adriamycin; for cytotoxicity or anti-tumor activity relative to N-trifluoroacetyladriamycin-14-valerate: vs valerate
# Method: (§1) The toxicity and therapeutic effectiveness of the new compounds and active agents of the present invention are shown by in vitro assays and by in vivo evaluations in mice. The in vitro assays measure the growth inhibiting activity of the materials against the CCRF-CEM cell line in culture. The cell line was derived from the peripheral blood of a child with lymphoblastic leukemia as described by Foley et al., Cancer, Volume 18, page 522 et seq. (1965), and the assays were carried out by the procedure of Foley and Lazarus, Biochem. Pharmacol., Volume 16, pages 659 et seq. (1967), the results being reported in terms of the dose in micromoles per liter required to inhibit growth of the cultures by 50% relative to control cultures to which no drug had been added (ID50). The in vivo evaluations were made by preparing a 0.2 to 0.7% by weight solution of the active agent in a formulation consisting of 10% by volume of each polyethoxylated castor oil and ethanol in saline and injecting the dosage intraperitoneally. The evaluations were made of the antitumor activity against the murine P388 and murine L1210 leukemias in BDF1 male mice according to standard National Cancer Institute protocols as set forth by Geran et al., Cancer Chemotherap. Rep., Part 3, Volume 3, pages 1 et seq. (1972) , except that a qd 1-4 schedule was used in place of qd 1-9 in order to conserve materials.
# murine L1210 leukemia = assay: in vivo antitumor activity against L1210 leukemia, ip days 1-4; parameters: species or system mouse (BDF1 male mice)
# Method: as §1
# (§2) Optimal dosage was determined by testing doses which were at several multiples of 10 milligrams/kilogram of body weight. Some effectiveness can be observed at dosages ranging from 30 to 70 milligrams/kilogram of body weight, depending upon the particular compound employed.
# All compounds were administered intraperitoneally; in tests (1) and (2), the compounds were in 10% Emulphor EL-620, 10% ethanol, and 80% isotonic saline. In test (3) the compound was in aqueous buffer containing monobasic potassium phosphate and sodium hydroxide (0.05 M), pH 7.40: […]
# mice = assay: toxicity to mice; assay type: in vivo, mouse
# Method: as §1
# [2] = hydrolytic stability in aqueous buffers, TLC quantification of N-trifluoroacetyladriamycin; assay type: physicochemical; settings: for degraded at 24 h: aqueous buffer, dark, read-out: Percent hydrolyzed; for resistance to hydrolysis: aqueous solutions
# Source text: The results were as follows:
# murine P388 leukemia = assay: in vivo antitumor activity against murine P388 leukemia, ip qd 1-4; parameters: species or system mouse (BDF1 male mice)
# Method: as §1, §2
# The following table summarizes the in vivo antitumor activity of the same compounds as those in Table I, evaluated against murine P388 leukemia as described above. All compounds were administered intraperitoneally, adriamycin in clinical formulation (1 part adriamycin plus 5 parts lactose, in 0.9% saline), the other compounds in 10% Emulphor EL-620, 10% ethanol, 80% isotonic saline.
# [3] = steroid administration to patients with vehicle-associated chest pain; cited from earlier work
# [4] = clinical use; cited from earlier work
# [5] = 50.0 mg/kg/d × 4 ip, 10% Emulphor EL-620, 10% ethanol, 80% isotonic saline
# [6] = 60.0 mg/kg/d × 4 ip, 10% Emulphor EL-620, 10% ethanol, 80% isotonic saline
# [7] = test (3): 50.0 mg/kg/d × 4 ip, aqueous phosphate buffer (0.05 M) pH 7.40
# [8] = test (3): 60.0 mg/kg/d × 4 ip, aqueous phosphate buffer (0.05 M) pH 7.40
# [9] = each dose 40.0 mg/kg ip, 10% Emulphor EL-620, 10% ethanol, 80% saline
# [10] = each dose 50.0 mg/kg ip, 10% Emulphor EL-620, 10% ethanol, 80% saline
# [11] = each dose 60.0 mg/kg ip, 10% Emulphor EL-620, 10% ethanol, 80% saline
# [12] = each dose 70.0 mg/kg ip, 10% Emulphor EL-620, 10% ethanol, 80% saline
# [13] = each dose 1.0 mg/kg ip, clinical formulation (lactose, 0.9% saline)
# [14] = each dose 2.0 mg/kg ip, clinical formulation (lactose, 0.9% saline)
# [15] = each dose 3.0 mg/kg ip, clinical formulation (lactose, 0.9% saline)
# [16] = each dose 4.0 mg/kg ip, clinical formulation (lactose, 0.9% saline)
# [17] = each dose 5.0 mg/kg ip, clinical formulation (lactose, 0.9% saline)
# [18] = each dose 30.0 mg/kg ip, 10% Emulphor EL-620, 10% ethanol, 80% saline
compound,measurement,setting,value
COc1cccc2c1C(=O)c1c(O)c3c(c(O)c1C2=O)CC(O)(C(=O)COC(=O)CCCCC(=O)O)CC3OC1CC(NC(=O)C(F)(F)F)C(O)C(C)O1 (centres unmarked) [N-Trifluoroacetyladriamycin-14-O-hemiadipate],solubility,solubility in water,60 mg/mL
same,solubility in water relative to N-trifluoroacetyladriamycin-14-valerate,solubility in water,many times greater than that of N-trifluoroacetyladriamycin-14-valerate
same,IC50,"CCRF-CEM cells; CCRF-CEM cells, in vitro",310 nM
same,cytotoxicity or anti-tumor activity relative to adriamycin,[1],greater than that of adriamycin
same,cytotoxicity or anti-tumor activity relative to N-trifluoroacetyladriamycin-14-valerate,[1],approximately equal to that of N-trifluoroacetyladriamycin-14-valerate
same,"% ILS (percent median increase in life span relative to untreated controls, calculated as of day 50)",murine L1210 leukemia; [5],> 456%
same,No. alive on d 50,murine L1210 leukemia; [5],7/7
same,"% ILS (percent median increase in life span relative to untreated controls, calculated as of day 50)",murine L1210 leukemia; [6],> 456%
same,No. alive on d 50,murine L1210 leukemia; [6],6/7
same,prolonging the survival of mice bearing the L1210 leukemia,murine L1210 leukemia; ip,highly effective in prolonging the survival of mice bearing the L1210 leukemia
same,"% ILS (percent median increase in life span relative to untreated controls, calculated as of day 50)",murine L1210 leukemia; [7],> 456%
same,No. alive on d 50,murine L1210 leukemia; [7],5/7
same,"% ILS (percent median increase in life span relative to untreated controls, calculated as of day 50)",murine L1210 leukemia; [8],> 456%
same,No. alive on d 50,murine L1210 leukemia; [8],7/7
same,toxicity to mice relative to adriamycin or daunomycin,mice,significantly less toxic to mice than adriamycin or daunomycin
same,degraded at 24 h,"[2]; pH 7.4, pH 7.40, 4° C.",0%
same,degraded at 24 h,"[2]; pH 7.4, pH 7.40, 27° C.",0.5%
same,degraded at 24 h,"[2]; pH 8, pH 8.00, 4° C.",0.3%
same,degraded at 24 h,"[2]; pH 8, pH 8.00, 27° C.",1%
same,degraded at 24 h,"[2]; pH 9, pH 9.00, 4° C.",0.5%
same,resistance to hydrolysis,[2],excellent resistance to hydrolysis
same,No. alive on d 30,murine P388 leukemia; [9],6/7
same,No. alive on d 60,murine P388 leukemia; [9],6/7
same,"Survival, day of death (range only, no median)",murine P388 leukemia; [9],25 days
same,No. alive on d 30,murine P388 leukemia; [10],6/7
same,No. alive on d 60,murine P388 leukemia; [10],5/7
same,"Survival, day of death (range only, no median)",murine P388 leukemia; [10],"23,45 day"
same,No. alive on d 30,murine P388 leukemia; [11],6/7
same,No. alive on d 60,murine P388 leukemia; [11],6/7
same,"Survival, day of death (range only, no median)",murine P388 leukemia; [11],"24,93 day"
same,No. alive on d 30,murine P388 leukemia; [12],7/7
same,No. alive on d 60,murine P388 leukemia; [12],7/7
same,"Survival, day of death (range only, no median)",murine P388 leukemia; [12],61 to 77 days
C[C@]12CCC(=O)C=C1CC[C@@H]1[C@@H]2[C@@H](O)C[C@@]2(C)[C@H]1CC[C@]2(O)C(=O)COC(=O)CCC(=O)O [hydrocortisone hemisuccinate],effect on chest pain symptom complex during valerate infusion,[3],eliminated the symptom complex in those cases
COc1cccc2c1C(=O)c1c(O)c3c(c(O)c1C2=O)C[C@@](O)(C(=O)CO)C[C@@H]3O[C@H]1C[C@H](N)[C@H](O)[C@H](C)O1 [Adriamycin],IC50,CCRF-CEM cells; CCRF-CEM,50 nM
same,toxic side-effects (dose-limiting),[4],acute myelosuppression and cumulative dose-related cardiac toxicity
same,% ILS (percent increase in life span relative to untreated controls),murine P388 leukemia; [13],81%
same,No. alive on d 30,murine P388 leukemia; [13],0/7
same,"Survival, Median day of death (range)",murine P388 leukemia; [13],20.0 (18-27) day
same,% ILS (percent increase in life span relative to untreated controls),murine P388 leukemia; [14],90%
same,No. alive on d 30,murine P388 leukemia; [14],2/7
same,No. alive on d 60,murine P388 leukemia; [14],1/7
same,"Survival, Median day of death (range)",murine P388 leukemia; [14],21.0 (20-32) day
same,% ILS (percent increase in life span relative to untreated controls),murine P388 leukemia; [15],181%
same,No. alive on d 30,murine P388 leukemia; [15],4/7
same,No. alive on d 60,murine P388 leukemia; [15],2/7
same,"Survival, Median day of death (range)",murine P388 leukemia; [15],31.0 (23-36) day
same,% ILS (percent increase in life span relative to untreated controls),murine P388 leukemia; [16],63%
same,No. alive on d 30,murine P388 leukemia; [16],0/7
same,"Survival, Median day of death (range)",murine P388 leukemia; [16],18.0 (7-28) day
same,No. alive on d 30,murine P388 leukemia; [17],0/7
same,"Survival, Median day of death (range)",murine P388 leukemia; [17],9.0 (7-27) day
same,% ILS (percent increase in life span relative to untreated controls),"murine P388 leukemia; ip, 5 mg/kg",-19%
COc1cccc2c1C(=O)c1c(O)c3c(c(O)c1C2=O)C[C@@](O)(C(C)=O)C[C@@H]3O[C@H]1C[C@H](N)[C@H](O)[C@H](C)O1 [daunorubicin],toxic side-effects (dose-limiting),[4],acute myelosuppression and cumulative dose-related cardiac toxicity
COc1cccc2c1C(=O)c1c(O)c3c(c(O)c1C2=O)CC(O)(C(=O)COC(=O)CCCC(=O)O)CC3OC1CC(NC(=O)C(F)(F)F)C(O)C(C)O1 (centres unmarked) [N-Trifluoroacetyladriamycin-14-O-hemiglutarate],solubility,solubility in water,65 mg/mL
same,solubility in water relative to N-trifluoroacetyladriamycin-14-valerate,solubility in water,many times greater than that of N-trifluoroacetyladriamycin-14-valerate
same,IC50,"CCRF-CEM cells; CCRF-CEM cells, in vitro",280 nM
same,cytotoxicity or anti-tumor activity relative to adriamycin,[1],greater than that of adriamycin
same,cytotoxicity or anti-tumor activity relative to N-trifluoroacetyladriamycin-14-valerate,[1],approximately equal to that of N-trifluoroacetyladriamycin-14-valerate
same,toxicity to mice relative to adriamycin or daunomycin,mice,significantly less toxic to mice than adriamycin or daunomycin
same,degraded at 24 h,"[2]; pH 7.4, pH 7.40, 4° C.",0%
same,degraded at 24 h,"[2]; pH 7.4, pH 7.40, 27° C.",1%
same,degraded at 24 h,"[2]; pH 9, pH 9.00, 4° C.",< 0.5%
same,degraded at 24 h,"[2]; pH 9, pH 9.00, 27° C.",3%
same,resistance to hydrolysis,[2],excellent resistance to hydrolysis
same,% ILS (percent increase in life span relative to untreated controls),murine P388 leukemia; [18],81%
same,No. alive on d 30,murine P388 leukemia; [18],2/7
same,No. alive on d 60,murine P388 leukemia; [18],0/7
same,"Survival, Median day of death (range)",murine P388 leukemia; [18],20.0 (20-35) day
same,% ILS (percent increase in life span relative to untreated controls),murine P388 leukemia; [9],109%
same,No. alive on d 30,murine P388 leukemia; [9],2/7
same,No. alive on d 60,murine P388 leukemia; [9],1/7
same,"Survival, Median day of death (range)",murine P388 leukemia; [9],23.0 (20-35) day
same,% ILS (percent increase in life span relative to untreated controls),murine P388 leukemia; [10],172%
same,No. alive on d 30,murine P388 leukemia; [10],3/7
same,No. alive on d 60,murine P388 leukemia; [10],2/7
same,"Survival, Median day of death (range)",murine P388 leukemia; [10],30.0 (20-42) day
same,No. alive on d 30,murine P388 leukemia; [11],5/7
same,No. alive on d 60,murine P388 leukemia; [11],4/7
same,"Survival, day of death (range only, no median)",murine P388 leukemia; [11],"20,29 day"
same,No. alive on d 30,murine P388 leukemia; [12],5/7
same,No. alive on d 60,murine P388 leukemia; [12],4/7
same,"Survival, day of death (range only, no median)",murine P388 leukemia; [12],25 to 36 days
